The text below walks through data of patent publication US20100287636A1, “COMPOSITIONS AND METHODS FOR INHIBITING INDUCIBLE T CELL KINASE (ITK) AND TREATING ASTHMA AND BRONCHIAL INFLAMMATIONS” (San Diego State University Foundation, dba San Diego State …, priority 2007, published 2010).

No end group written: not given here.

Series [1] deals with T1, SH3 domain of ITK (Mus musculus, UniProt Q03526).
T1 sequence (Q03526 177-237 limits assumed): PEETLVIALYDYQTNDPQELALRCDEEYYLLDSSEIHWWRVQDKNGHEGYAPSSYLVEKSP
The settings on record: chemical shift perturbation assays, reference (17); read-out: Kd of the in vitro interaction between peptide and the SH3 domain of ITK; cited from earlier work.

The subject of series [2] is Jurkat cells. Briefly: viability measurements on Jurkat cells. Format: cell-based. The settings on record: highest concentration tested.
The target of series [3] is T2, ITK (Homo sapiens, UniProt Q08881).
T2 construct: endogenous in cells; host or cells: Jurkat T cells
T2 sequence (Q08881 1-620): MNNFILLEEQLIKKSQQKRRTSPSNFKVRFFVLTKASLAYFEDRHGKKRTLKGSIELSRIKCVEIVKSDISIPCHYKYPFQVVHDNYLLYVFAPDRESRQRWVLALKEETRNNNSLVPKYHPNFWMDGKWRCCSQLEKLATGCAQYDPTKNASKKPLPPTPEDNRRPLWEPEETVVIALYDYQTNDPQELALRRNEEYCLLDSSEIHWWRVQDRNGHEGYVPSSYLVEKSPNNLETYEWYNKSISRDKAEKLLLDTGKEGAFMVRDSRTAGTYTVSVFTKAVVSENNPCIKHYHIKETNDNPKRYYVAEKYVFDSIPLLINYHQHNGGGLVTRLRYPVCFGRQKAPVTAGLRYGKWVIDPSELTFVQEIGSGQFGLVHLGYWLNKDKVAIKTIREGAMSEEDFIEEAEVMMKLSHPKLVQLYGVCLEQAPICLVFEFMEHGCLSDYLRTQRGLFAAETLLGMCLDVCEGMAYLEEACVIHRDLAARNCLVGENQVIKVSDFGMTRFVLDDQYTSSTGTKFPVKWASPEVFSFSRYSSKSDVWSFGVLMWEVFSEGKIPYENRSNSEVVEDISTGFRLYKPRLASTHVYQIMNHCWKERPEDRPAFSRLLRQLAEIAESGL
Kind of series: phosphorylation of ITK on Tyr 511 in Jurkat cells (flow cytometry). The settings on record: text does not separate Jurkat and mouse splenocytes, read-out: peptide concentration for fifty percent inhibition of ITK phosphorylation. The format is cell-based. The method, then:
(§1) FIG. 6. […] Following stimulation the cells were stained with specific anti-ITK phosphotyrosine antibodies obtained from a commercial source (BD Biosciences) and following the manufacturer's instructions for intracytoplasmic staining. The stained samples were analyzed in a flow cytometer and the percent phosphorylation related to control (100%) was quantified. […] Fifty percent inhibition was achieved by approximately 1 μM peptide
A general note: In flow cytometry, cells or beads pass a laser one at a time.

The target in series [4] is T3, ITK (Mus musculus, UniProt Q03526).
T3 construct: endogenous in cells; host or cells: primary mouse splenic lymphocytes
T3 sequence (Q03526 1-625): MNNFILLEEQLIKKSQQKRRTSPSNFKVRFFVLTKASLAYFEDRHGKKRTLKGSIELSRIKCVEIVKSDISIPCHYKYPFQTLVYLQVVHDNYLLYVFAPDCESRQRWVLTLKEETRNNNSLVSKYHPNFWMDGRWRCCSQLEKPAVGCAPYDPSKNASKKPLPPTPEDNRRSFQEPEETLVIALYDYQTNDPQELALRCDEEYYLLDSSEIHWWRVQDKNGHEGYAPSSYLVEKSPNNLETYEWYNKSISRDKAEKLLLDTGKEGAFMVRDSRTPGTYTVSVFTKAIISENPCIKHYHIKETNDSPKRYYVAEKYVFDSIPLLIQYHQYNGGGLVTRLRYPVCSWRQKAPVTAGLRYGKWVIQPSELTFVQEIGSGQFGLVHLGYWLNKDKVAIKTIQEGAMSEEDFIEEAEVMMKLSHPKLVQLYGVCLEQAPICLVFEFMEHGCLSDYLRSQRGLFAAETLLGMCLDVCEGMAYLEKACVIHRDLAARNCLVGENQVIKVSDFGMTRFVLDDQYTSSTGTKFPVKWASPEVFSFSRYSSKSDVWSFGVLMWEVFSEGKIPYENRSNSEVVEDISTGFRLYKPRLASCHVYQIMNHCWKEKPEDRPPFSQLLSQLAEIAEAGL
Briefly: phosphorylation of ITK on Tyr 511 in mouse splenocytes (flow cytometry). The note with it: text does not separate Jurkat and mouse splenocytes, read-out: peptide concentration for fifty percent inhibition of ITK phosphorylation. Format: cell-based.
From the text: In view of the significant degree of ITK-SLP 76 inhibition mediated by the exemplary arginine-SLP 76 peptide conjugate of the invention, henceforth called R9-QQP, the next question was whether the exemplary R9-QQP peptide can inhibit the phosphorylation of ITK. This is important because it represents an accurate index of ITK activity; see e.g., referenced (14), below. Furthermore, the data described above have been performed by using the Jurkat T cell line. Even though this is a very useful cellular model for research, it is a leukemic cell line and thus, data obtained with this model should be confirmed in a more normal physiological substrate. Therefore, we also tested the effect of R9-QQP on primary mouse splenic lymphocytes.
as §1

Series [5] has as its target T4, ITK-SLP76 interaction (Homo sapiens, UniProt Q08881).
T4 construct: endogenous in cells; host or cells: Jurkat T cells
T4 sequence (Q08881 1-620): T2 sequence (Q08881 1-620)
Briefly: inhibition of inducible ITK-SLP76 association in stimulated Jurkat cells (co-immunoprecipitation). The format is cell-based. The method, then: (§2) FIG. 1. Inducible Association between ITK and SLP76: Jurkat T cells were stimulated through their TCR for various periods of time and then lysed. Lysates were treated with antibody to SLP-76 (IP: anti-SLP76) and the immune complexes were resolved by gel electrophoresis. The resolved proteins were transferred onto a membrane where ITK and SLP76 were visualized by probing with specific antibodies reactive with these proteins. First, ITK was probed (IB: anti-ITK) and subsequently SLP76 (IB: anti-SLP76). […] The interpretation is that ITK and SLP76 participate in a stimulation inducible signaling complex. Furthermore, the association of ITK and SLP76 in this complex is time dependent. It happens at one (1) minute post stimulation and then the two proteins dissociate.
(§3) FIG. 4. Inhibition of ITK-SLP76 inducible association by the polyArg-SLP76 peptide conjugate of the invention: We next addressed the important question of whether the presence of the exemplary SLP76 peptide of the invention disrupts the physical association between ITK and SLP76. Jurkat cells were stimulated as described under FIG. 1 above in the presence or absence of various concentrations of the exemplary Arg-conjugated SLP76 peptide of the invention. […] This index was calculated by correcting the ITK signals for the total of SLP 76 signal in each lane and then calculating the ratio over the non-stimulated control. […]

The target in series [6] is T5, Inducible T cell Kinase (ITK), endogenous in Jurkat T cells (human, UniProt Q08881 1-620).
T5 construct: Endogenous intracellular ITK from Jurkat T cell lysates; The tie rests on Jurkat being a human T cell line
T5 sequence: T2 sequence (Q08881 1-620)
Briefly: co-IP from TCR-stimulated Jurkat T cell lysates (IP anti-SLP76, IB anti-ITK). The method, then: as §2

The target in series [7] is T6, R9 (nine Arginine amino acids by themselves).
T6 chain: RRRRRRRRR

The target of series [8] is R9-Scrambled arginine-SLP 76 peptide conjugate (R9-SCR).
The target of series [9] is T5, Inducible T cell Kinase (ITK), …. Kind of series: competition in cells: co-IP of ITK with SLP76 from stimulated Jurkat cells against peptide concentration (association index, average of three experiments). The method, then:
as §2, §3

For the molecule RRRRRRRRRQQPPVPPQRPMA [R9-QQP], the Kd in series [1] was 770 nM. Also, the “toxic effects on Jurkat cells (viability)” value in [2] is “no toxic effects”. For the same molecule, the IC50 in series [3] was around 1000 nM; in [4] it was around 1000 nM; in [5] (Jurkat cells, read-out: concentration for 50% inhibition in the ITK-SLP 76 association) it was around 1000 nM. Besides, the inhibition at 1 µM in series [5] (1 μM of peptide, Jurkat cells stimulated 1 minute) is around 50%.

B1: SLP76, endogenous in Jurkat T cells (other, UniProt Q13094 1-533, looked up)
chain: MALRNVPFRSEVLGWDPDSLADYFKKLNYKDCEKAVKKYHIDGARFLNLTENDIQKFPKLRVPILSKLSQEINKNEERRSIFTRKPQVPRFPEETESHEEDNGGWSSFEEDDYESPNDDQDGEDDGDYESPNEEEEAPVEDDADYEPPPSNDEEALQNSILPAKPFPNSNSMYIDRPPSGKTPQQPPVPPQRPMAALPPPPAGRNHSPLPPPQTNHEEPSRSRNHKTAKLPAPSIDRSTKPPLDRSLAPFDREPFTLGKKPPFSDKPSIPAGRSLGEHLPKIQKPPLPPTTERHERSSPLPGKKPPVPKHGWGPDRRENDEDDVHQRPLPQPALLPMSSNTFPSRSTKPSPMNPLPSSHMPGAFSESNSSFPQSASLPPYFSQGPSNRPPIRAEGRNFPLPLPNKPRPPSPAEEENSLNEEWYVSYITRPEAEAALRKINQDGTFLVRDSSKKTTTNPYVLMVLYKDKVYNIQIRYQKESQVYLLGTGLRGKEDFLSVSDIIDYFRKMPLLLIDGKNRGSRYQCTLTHAAGYP
notes: whole, on cells; Endogenous intracellular adaptor protein, immunoprecipitated from Jurkat lysates with anti-SLP76 antibody
Regarding B1, in series [6], the binding result is “binds”.

B2: ITK, endogenous in mouse splenic lymphocytes (protein)
chain: T3 sequence (Q03526 1-625)
Turning to B2, the “ITK Tyr 511 phosphorylation, flow cytometry, primary mouse splenic lymphocytes” value in series [7] and in series [8] was “None of the two control peptides had significant effects on the phosphorylation of ITK in either Jurkat or primary mouse splenic lymphocytes” each time.

B3: R9-QQP, arginine-SLP76 peptide conjugate RRRRRRRRRQQPPVPPQRPMA (peptide)
peptide: RRRRRRRRRQQPPVPPQRPMA
notes: Synthetic cell-penetrating peptide; It was loaded into Jurkat cells or mouse splenocytes, or injected intraperitoneally into mice; A fluorescein-labelled version was used only for uptake studies, which are not recorded; also called Arg-SLP76 conjugate peptide; polyArg-SLP76 peptide conjugate
Turning to B3, the IC50 in series [9] was around 1000 nM.

A word on the Kd: it is the concentration at which binding is half-saturated. By inhibition is commonly meant the percentage by which the read-out fell short of the control. A low value points to a response near the control.
